From US20020147326A1, “Hexameric fusion proteins and uses therefor” (SmithKline Beecham Corporation, priority 1996, published 2002)

Experiments:
CTLA4-Ig = target: T1, CTLA4-Ig (Homo sapiens, UniProt P16410, F162A); test: Isothermal titration calorimetry, binding to CTLA4-Ig in solution
T1 construct: junction spanning the end of the CTLA4 extracellular domain and the hinge region; human IgG1 Fc (hinge/CH2/CH3); made in house; host or cells: CHO cells (by 'in a similar manner' to CD28-Ig)
Source text: The solution binding properties of the hexameric and standard Ig fusion proteins of CD80 and CD86 were compared using isothermal titration calorimetry, essentially as described previously for other proteins [K. Johanson et. al., J. Biol. Chem, 270: 9459-9471 (1995), and references therein].
The error in Kd's is about a factor of 2 and the error in molar binding ratio's is 10-20%. […] The molecular masses of CD80-Igαtp and CD86-Igαtp were estimated as 6× the mass of the respective Ig proteins plus 40,000 Da. contributed by the twelve tailpiece segments.

[1] = test system: murine T-cell hybridoma cell lines expressing human CD28 (PCD28.1.s2.1, DCL27CD28wt.s2); test: IL-2 production by CD28 T-cell hybridomas (CTLL-2 bioassay); type: cell-based; conditions: for IL-2 response: cross-linked with GAH antibody, no CD3 antibody; for level of IL-2 response at near saturation: soluble protein 1 ug/ml (FIG. 20C)
Source text: The CD80- and CD86-Igαtp proteins were compared to the corresponding CD80 and CD86-Ig proteins to determine their ability to stimulate cells expressing human CD28 using two murine T-cell hybridoma cell lines expressing human CD28, PCD28.1.s2.1 and DCL27CD28wt.s2. The PCD28.1.s2.1 cell line was described in Example 1, part 3. The DCL27CD28wt.s2 cell line was created by transfection of the DC27 cell line [F. Pages et al., Nature, 369:327-329 (1994); F. Pages et al., J. Biol. Chem., 271(16):9403-9409 (1996)] with the same CD28 expression vector used for the PCD28.1.s2.1 cells [D. Couez et al., Molecular Immunology, 31:47-57 (1994)]. These cell lines were examined for their ability to produce IL-2 in response to activation with CD80- and CD86-Ig in comparison with the corresponding Igαtp fusion proteins. 96-well plates were coated with or without a CD3 antibody together with the CD80 and CD86 fusion proteins. This was accomplished by first incubating the plates with a previously determined suboptimal concentration of hamster […] CD3 antibody (MAb 145-2C11, Boerhinger-Mannheim Biochemicals) for two hours at room temperature (RT) or with just buffer alone, washing the plates with PBS, adding goat anti-human Ig heavy chain (GAH-IgHc, Sigma Chemical Co.) for an additional two hours at RT, washing again and coating with different concentrations of the CD80 or CD86 fusion protein for 16-18 hours at 4° C., washing again, and finally blocking for 30 min. with 0.2% BSA-PBS. T cells (1×10^5/well) were added in 150 μl medium into duplicate wells. For comparison, the soluble fusion proteins and the 248.23.2 CD28 MAb (IgM) [A. Morretta, University of Genova, Italy] were added to non-coated wells. T cells were incubated in the wells for 24 hours at 37° C., and supernatants were collected and evaluated for IL-2 levels in a standard CTLL-2 bioassay [S. M. Gillis et al., J. Immunol., 120:2027 (1978)]. Briefly, 1×10^4 IL-2 dependent CTLL-2 cells (ATCC)/well in 75 μl medium were added to an equal volume of test supernatant and incubated for 24 hours at 37° C. The cells were pulsed with 10 μl of 5 mg/ml MTT (Sigma Chemical Co.) for 4 hours, and lysed with […] 10% SDS/0.01N HCl solution for 14-16 hours. OD570 readings were converted into ng/ml of IL-2 based on a standard curve generated by treating cells with known concentrations of IL-2.
(§1) IL-2 promoter activity and IL-2 levels were measured similarly to that described in parts A and B above, except that proliferation of the reader CTLL-2 cells was measured by ^3H-thymidine incorporation.

[2] = test system: PCD28.1.S2.1 cells (human CD28, lacZ fused to the IL-2 promoter); test: FDG assay for IL-2 promoter activity (lacZ reporter); type: cell-based, murine; conditions: added directly to PC28.1.s2.1 cells in solution (FIG. 20A)
Description: A second assay for agonist activity measured induction of IL-2 promoter activity, rather than production of IL-2 protein. The PCD28.1.S2.1 cells described above also contain lacZ fused to the IL-2 promoter. Thus, the PCD28.1.S2.1 cell line provides a convenient system for measuring IL-2 promoter activity upon CD28-mediated T cell simulation. T cells were activated as described above for the CTLL-2 assay, spun down, resuspended in 50 μl of media+50 μl of PBS, lysed with 10 μl of 20% Triton X-100, and supplemented with 25 μl of 10 mM FDG (Molecular Probes), a fluorogenic substrate for b-galactosidase. Hydrolysis of FDG first yields fluorescein monogalactoside (FMG) and then the highly fluorescent product fluorescein. Cell lysates were incubated with FDG for 60 min., and the levels of fluorescence were measured by Fluoroscan (MTX Lab Systems, Inc).
as §1

CD28-Ig [3] = target: T2, CD28-Ig (Homo sapiens, UniProt P10747); test: Surface plasmon resonance (BIAcore) on immobilized CD28-Ig; type: binding; set-up: native leader and extracellular domain peptide of CD28 and CD80 were grafted onto a human IgG1 heavy chain Fc region; human IgG1 Fc (hinge/CH2/CH3); made in house; host or cells: CHO cells; conditions: for dissociation from CD28-Ig coated surface: BIAcore, 10 ul/min
Description: Covalent attachment was achieved by firstly activating the surface with a 1:1 mixture of 0.1 M solution of N-hydroxysuccinamide and 0.1 M 1-ethyl-3-(3-dimethylaminopropyl)carbodiimide. A solution of CD28-Ig 50 ug/ml in 0.01 M sodium acetate pH 4.7 was then passed over the surface. Unreacted N-hydroxysuccinamide esters were then deactivated with 1 M ethanolamine pH 8.5. The surface was equilibrated with running buffer composed of 20 mM HEPES 150 mM NaCl, pH 7.2, 3 mM EDTA and 0.005% Tween 20.
For comparison of CD80-Igαtp and CD86-Igαtp binding with immobilized CD28-Ig, solutions of CD80-Igαtp and CD86-Igαtp (5 ug/ml) were prepared in running buffer described above. Sample solutions were injected (60 ul) at 10 ul/min. Between samples, the surface was regenerated with a 30 ul injection of Gentle elution buffer (Pierce Chemicals, Rockville, Ill.).

CD28-Ig [4] = target: T2, CD28-Ig; set-up: Ig fusion partner; conditions: read-out: approximate Kd of soluble CD80-Ig binding to immobilized CD28-Ig; Linsley et al. 1991; cited from earlier work
[5] = added directly to PC28.1.s2.1 cells in solution, CTLL-2 3H-thymidine incorporation (FIG. 20B)
[6] = soluble protein, absence of CD3 crosslinking

T1 sequence (P16410 38-162 F162A): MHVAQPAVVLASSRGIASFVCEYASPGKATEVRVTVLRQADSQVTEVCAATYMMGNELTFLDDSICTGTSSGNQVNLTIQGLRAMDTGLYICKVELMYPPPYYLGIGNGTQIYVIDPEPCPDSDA

Row | Substance | ratio of Igαtp to Ig titration equivalence points (molar ratio) (CTLA4-Ig) | IL-2 production [1, 5] | IL-2 response [1] | level of IL-2 response at near saturation [1] | IL-2 production [1, 6] | IL-2 promoter activity [2] | dissociation from CD28-Ig coated surface (CD28-Ig [3]) | off-rate compared with CD80-Igαtp (CD28-Ig [3]; 5 ug/ml) | Kd (CD28-Ig [4]) [nM]
1 | CD80-Igαtp: CD80 leader and extracellular domain linked to human IgG1 hinge/CH2/CH3 and terminating in human IgA1 tailpiece (αtp) | about 6 | dose dependent stimulation | increased the IL-2 response | comparable to that observed for stimulation through cross-linking of CD3 with immobilized CD3 antibody | induced IL-2 production | dose dependent stimulation | about three orders of magnitude slower | – | –
2 | CD86-Igαtp: CD86 leader and extracellular domain linked to human IgG1 Fc and terminating in human IgA1 tailpiece (αtp) | – | dose dependent stimulation | increased the IL-2 response | comparable to that observed for stimulation through cross-linking of CD3 with immobilized CD3 antibody | induced IL-2 production | dose dependent stimulation | dissociates slowly | higher than that for the CD80 construct | –
3 | CD80-Ig: CD80 leader and extracellular domain grafted onto human IgG1 heavy chain Fc region; monomeric Ig fusion (Ig homodimer) [reference compound] | – | no stimulation | did not give a response | – | no activity | no stimulation | dissociates very rapidly | – | ~200
